# Experimental data from patent US20060234919A1, “Use” (priority 2001, published 2006).
# Test system: xylene-induced cystitis
# Experiment: xylene-induced cystitis, plasma protein extravasation (Evans blue)
# Format: in vivo, rat
# Conditions: 1 mg/ml s.c. 1 h before xylene; 2 h after instillation; xylene alone 13.21±3.68; p<0.01
# Procedure: Rats were anaesthetised with pentobarbital sodium and phenobarbitone sodium as above. Following i. v. injection of Evans blue (20 mg/kg, i. v.), the urinary bladder was cannulated via the urethra using a polyethylene tubing and […] xylene (30% v/v in silicone oil) were instilled within 10 s. The cannula was then left in place for a further period of 10 s. Two hours later, the animals were injected with an overdose of pentobarbitone sodium and the bladder was removed. Evans blue was extracted by incubation of the tissue in 4 ml formamide for 24 h at 55° C. for subsequent photometric measurements at 620 nm.
# Plasma protein extravasation in the urinary bladder of anaesthetised rats was made 2 h after intravesical instillation of 30% (v/v) xylene […]. Control animals were treated with appropriate volumes of the vehicles ([…] silicone oil or 4 ml/kg 154 mmol/l NaCl solution, respectively). Oxytocin (1 mg/ml) was injected s. c. 1 h before administration of xylene or cyclophosphamide while control rats received DMSO (0.5 ml/kg, s. c.). Plasma protein extravasation is given as total tissue content of the protein marker, Evans blue, given i. v. (20 mg/kg) 5 min prior to the induction of cystitis.
# Oxytocin was dissolved and diluted in DMSO for all experiments involving s. c. injection in volumes of 1.0 ml/kg. […]
substance,measurement,value
Oxytocin,"plasma protein extravasation, total Evans blue content of the urinary bladder",5.14 ± 2.58 mg
